Experiments:
eIF2α phosphorylation = assay: Assay 2: eIF2α phosphorylation in cells in the absence of stress; format: cell-based; conditions: human cells
Method: HeLa cells were cultured in Dulbecco's Modified Eagle's Media (DMEM) supplemented with penicillin, streptomycin, containing 5% and 10% fetal bovine serum (FBS), respectively. MEF cells were cultured in DMEM supplemented with penicillin, streptomycin, glutamine, 55 μM β-mercaptoethanol, 1× non-essential amino acids (Sigma-Adrich) and 10% FBS. Where indicated, cells were treated with 2.5 μg/ml tunicamycin, 1 mM DTT (Sigma-Adrich) and or the indicated compounds at the indicated concentrations.
For immunoblots, HeLa cells (80,000 cells/ml) were plated in 12-well plates 24 hours before each experiment. Immediately after the indicated treatments, cells were lysed in 75 μl Laemmli Buffer, boiled at 95° C. for 5 minutes and sonicated. Proteins were separated and analysed as described (Tsaytler et al., Science, 332, 91-94, 2011) with the following antibodies: phospho-elf2α [pS52] and PPP1R15A/GADD34 (10449-1-AP; ProteinTech Group, 1/1000 dilution) and ATF4 (Sc-200 Santa Cruz).
Human cells were treated with a PPP1R15B inhibitor and eIF2α phosphorylation was monitored over time. […] This was manifested between 1 and 7.5 hours after addition of the compound of Example 1. […] Indeed, the inventors noticed that PPP1R15A was induced at the late time points following addition of the compound of Example 1 (see Assay 3). […] Furthermore, this establishes that the compound of Example 1 spares PPP1R15A. […]

HeLa cells = assay: Assay 4: protection of cells from tunicamycin stress (WST-8); format: cell-based, human; conditions: Tunicamycin 2.5 μg/ml, 0.2-5 μM compound, 3 days
Method: Cells were plated in 24-well plates at a density of 15,000 (HeLa) or 12,000 cells/ml (MEFs) 24 hours prior to treatment. ER stress was elicited by addition of fresh media containing 2.5 μg/ml tunicamycin (Sigma-Aldrich). Compounds of Example 1 were dissolved in DMSO and added as indicated. DMSO was used as a mock treatment. Cell viability was assessed by measuring the reduction of WST-8 [2-(2-methoxy-4-nitrophenyl)-3-(4-nitrophenyl)-5-(2,4-disulfophenyl)-2H-tetrazolium] into formazan using Cell viability Counting Kit-8 (Dojindo) according to the supplier's recommendation, […] after tunicamycin treatment.
Cells where stressed with Tunicamycin (2.5 μg/ml) in the presence of 0.2-5 μM of a compound of Example 1. Cell viability was measured 3 days after treatment.
Cytoprotection against ER stress can be measured by a suitable assay. In this instance, cytoprotection was measured in HeLa cells in which ER stress was elicited by the addition of media containing tunicamycin, a drug that blocks N-glycosylation, thereby preventing protein folding and inducing the unfolded protein response. Cell viability was then detected in the presence and absence of a compound of Example 1 after a set period of time, by measuring the reduction of WST-8 into formazan using the standard cell viability kit Cell Viability Counting Kit-8 from Dojindo. […]

PPP1R15A = assay: Assay 6: PPP1R15A induction in mouse brain (qPCR); format: in vivo; conditions: mice, dose-dependent
Method: RNA from brain was extracted in trizol (Life Technologies). RNA concentration was measured using a NANODROP1000 spectrophotometer (Thermo Fisher Scientific), and 1 μg was reverse transcribed to cDNA using a SuperScript reverse transcriptase (Life Technologies). Quantitative PCR with primers GAPDH (f): […], GAPDH (r): […], PPP1R15A (f): […]; and PPP1R15A (r): […] was performed using SYBR® Select Master Mix (Ref 4472908, applied biosystems) on a Corbett Rotor-Gene version 6000. Expression of each gene was normalized to the housekeeping gene GAPDH and expressed as fold change calculated using Paffl equation.
PPP1R15A induction was assessed by qPCR on total mRNA extracted from brains of mice treated with the indicated doses of compound of Example 1.
This explains why a selective PPP1R15B inhibitor is tolerated in mice: PPP1R15A induction dephosphorylates eIF2α, ensuring that the eIF2α phosphorylation which results from PPP1R15B inhibition by a compound of Example 1 is only transient. This is important because a persistent phosphorylation of eIF2α is detrimental. The induction of PPP1R15A in vivo by a PPP1R15B inhibitor is a pharmacodynamic parameter that can be used to evaluate the efficacy and potency of PPP1R15B inhibitors in mammals in pre-clinical or clinical studies.

[1] = tested on: dorsal root ganglia culture (DRG) from PMP22 mutant mice; assay: Myelination in DRG explants from neuropathic mice; format: cell-based; conditions: 5 nM, 14 days
Method: Dorsal root ganglia (DRG) dissected from wild-type or Pmp22Tr-J (PMP22mutant) (Henry et al., Neuropathol. Exp. Neurol., 42, 688-706, 1983) embryo at 13.5 or […] (E13.5) were cultured on collagen coated coverslips in neurobasal media supplemented with 4 g/l glucose, 2 mM L-glutamine, 2% B27 supplement and 50 ng/ml neuronal growth factor (NGF) for 7 days. To differentiate Schwann cells and induce myelination, the cultured DRGs were then maintained in C-media (MEM media supplemented with 4 g/I glucose, 2 mM L-glutamine, 10% FCS, 50 ng/ml NGF). The C-media was replaced every other day with freshly added 50 μg/ml ascorbic acid ±5 nM of compound of Example I and cultured for 14 days for myelination by the Schwann cells. The cultured DRGs were then fixed in 4% paraformaldehyde and immunostained with MBP (Rat Myelin basic protein, 1/250 dilution, ab73498).
CMT is a group of myelin neuropathies caused by mutations in a number of genes. Mutations in the peripheral myelin protein PMP22 are the most common causes of CMT. A mutation in PMP22 (Trembler-J) causes the misfolding of PMP22 and a disease in mice that resembles CMT in human due to defects in myelin in the peripheral nervous system. Explants from PM P22 mutant mice recapitulates the severe hypomyelination observed in the human diseases. […] The compound of Example 1 will also be useful in the treatment of other myelin disorders.

Db/db animals = assay: Blood glucose in obese db/db mice; format: in vivo; conditions: 1 mg/kg once a day, three weeks
Method: For treatment of a metabolic disorder, Db/db animals (n=5 per condition) were treated once a day with 1 mg/kg of compound of Example 1 for three weeks. Blood glucose levels were measured with a blood glucose meter (DSI) between 9 and 10 am. Data are mean+/−S.e.m.
It is known that metabolic diseases such as diabetes, obesity, fatty liver disease, and atherosclerosis are associated with pathological ER stress and it is believed that pharmacological modulators of the UPR may have therapeutic benefit. As there were no PPP1R15B inhibitors available prior to this study it was unclear whether PPP1R15B could be a therapeutic target in metabolic diseases. […] Having shown in one disease model that treatment with a compound of Example 1 is beneficial, it is evident that the compounds of the invention will be beneficial to other mammalian metabolic disorders such as diabetes, obesity, fatty liver disease, and atherosclerosis.

In the case of `[H]/N=C(\N)NN=Cc1cccc(Cl)c1Cl` [Compound 16, (E)-2-(2,3-dichlorobenzylidene)hydrazine-1-carboximidamide], the eIF2α phosphorylation (eIF2α phosphorylation; 10 hours after addition) is reported as “returned to basal levels”, the eIF2α phosphorylation (eIF2α phosphorylation; between 1 and 7.5 hours after addition) is reported as “induced eIF2α phosphorylation” and the “protection of cells from stress (cell viability)” value (HeLa cells) is reported as “protects cells from cytotoxic stress caused by tunicamycin”. The “PPP1R15A induction (mRNA, brain)” value (PPP1R15A) was “induced PPP1R15A”, the “length of myelin internodes” value [1] was “increased the length of myelin internodes in mutant DRG” and the blood glucose (Db/db animals) was “reduced the pathological high blood glucose”.

From patent US11154519B2, “Inhibitors and their uses” (MEDICAL RESEARCH COUNCIL, priority 2015, dated 2021)
